Values quoted from earlier work in patent US20050181001A1, “Topical formulation for insect repellents” (priority 2003, published 2005).

What was measured:
[1] = test system: mosquitoes
[2] = test system: mosquitoes; conditions: oral

Row | Compound | effectiveness at repelling mosquitoes relative to DEET [1] | time before the odor fully saturates the skin and becomes effective [2] | reduction of mosquito bites ([2]; 25 to 50 mg three times per day)
1 | CC1=COC(=O)C2C(C)CCC12 (stereo not drawn) [nepetalactone] | more effective at repelling mosquitoes than DEET |  | 
2 | Cc1ncc(C[n+]2csc(CCO)c2C)c(N)n1 [thiamine] |  | up to 2 weeks | effective in reducing mosquito bites
